Test results taken from patent publication US20160243075A2, “TETRAHYDROCANNABIVARIN (THC) FOR USE IN THE PROTECTION OF PANCREATIC ISLET CELLS” (GW Pharma Limited, priority 2014, published 2016).
Entries after “also recorded” stand apart in the source; their conditions may differ.

Experiments:
[1] = Bodyweight change and food intake of db/db mice over the 28 day study (Example 1); assay type: in vivo; settings: male db/db mice, 10 mg/kg daily
Experimental: (§1) The phytocannabinoids CBD (10 mg/kg) and THCV (10 mg/kg) were tested along with AM 251 (10 mg/kg) which was used as a positive control.
(§2) On day 1 dosing commenced for groups A to D as outlined in Table 1.1 above. Animals were dosed daily at 17:00.

pancreatic islet cells = assay: Histology/morphology of insulin-stained pancreas in diabetic db/db mice (Example 1); assay type: in vivo; settings: male db/db mice, 10 mg/kg daily
Experimental: as §1
At the start of the study the Group E animals were sacrificed and a terminal blood sample was taken. In addition four of the animals pancreases were sampled for determination of β-cell area, islet size and β-cell mass by […].
as §2
At the end of the study the animals were sacrificed and a terminal blood sample was taken. In addition four of the animals pancreases were sampled for determination of islet β-cell area, islet size and islet β-cell mass by […].
The pancreases were stained for insulin and the pancreatic islet cells were examined under a microscope to determine the amount of insulin in the cells.

[2] = Blood samples for glucose and insulin in db/db mice (Example 1); assay type: in vivo
Experimental: as §1, §2

[3] = Oral glucose tolerance test in subjects with Type 2 diabetes at Visit 5 (Example 3 pilot study); assay type: in vivo, human; settings: 5 mg THCV twice daily, Visit 5 (Week 13), compared to placebo
Excerpt: There were four arms in this study plus a placebo comparator. These were a 1:1 and 20:1 ratio of CBD:THCV, CBD alone and THCV alone. Assessment of the impact of each treatment on different parameters was made. Measurements were taken of high density lipoprotein (HDL) cholesterol, total cholesterol, low density lipoprotein (LDL) cholesterol, HDL/LDL ratio, serum triglycerides, apolipoprotein markers (Apo A & Apo B) and determination of ApoA/Apo B ratio.
(§3) Other measurements including: lipid parameters; glucose control (fasting plasma glucose, glucose tolerance, serum fructosamine, glycosylated haemoglobin A1c (HbA1c) (whole blood)); Insulin sensitivity (insulin resistance); body weight & body mass index (BMI); adipose tissue distribution (total % body fat content, waist circumference, neck circumference, waist-to-hip ratio, visceral adiposity, liver triglyceride content); and appetite 11 point numerical rating scale (0-10 NRS).
(§4) The study took place over 15-19 weeks (1-5 week baseline and 13 week treatment period and 1 week follow-up), and was a multicentre, randomised, double blind, placebo controlled, parallel group pilot study which evaluated the test compounds on lipid parameters in subjects with Type 2 diabetes.
Further study visits took place at the end of Week 4 of treatment (Visit 3, Day 29), and again at the end of treatment at Week 13 (Visit 5, Day 92). […]

[4] = HOMA2 insulin sensitivity, change from baseline, subjects with Type 2 diabetes (Example 3); assay type: in vivo, human; settings: 5 mg THCV twice daily, end of study period, FIG. 16
Excerpt: as §3, §4
(§5) Further study visits took place at the end of Week 4 of treatment (Visit 3, Day 29), and again at the end of treatment at Week 13 (Visit 5, Day 92). Subjects were asked to fast overnight before Visits 1 (or 1B), 2 and 5 (minimum 8 hours). A telephone assessment was also performed at Day 57 (Visit 4) and at Week 14 (Visit 6, Day 99) for safety follow-up.
(§6) As this was a pilot study, a formal sample size calculation was not required. Each treatment group consisted of 10 subjects. There was five treatment groups 1:1 and 20:1 ratio of CBD:THCV plus CBD alone, THCV alone and placebo. […]

beta cell function = assay: HOMA2 beta cell function, change from baseline, subjects with Type 2 diabetes (Example 3); assay type: in vivo, human; settings: 5 mg THCV twice daily, end of study period, FIG. 17
Excerpt: as §3, §4, §5, §6

[5] = tested on: Glucagon-Like Peptide 1 (GLP-1); assay: Serum glucagon-like peptide 1 (GLP-1) levels, change from baseline, subjects with Type 2 diabetes (Example 3); assay type: in vivo, human; settings: oral 5 mg THCV twice daily, FIG. 18
Excerpt: Laboratory assessments included; physical examination; markers of vascular function; markers of adipocyte function including leptin and adiponectin; markers of inflammation including cytokines; retinol binding protein (RBP4) concentration; orexin type A (Orexin A) concentration; gut signalling hormone (Gastric Inhibitory Peptide (GIP), Glucagon-like peptide-1 (GLP-1), ghrelin) concentrations; ketone bodies; and endocannabinoid plasma levels.
as §4, §5
As this was a pilot study, a formal sample size calculation was not required. Each treatment group consisted of 10 subjects. There was five treatment groups 1:1 and 20:1 ratio of CBD:THCV plus CBD alone, THCV alone and placebo.

CB-1 receptor = CB-1 receptor (Homo sapiens, UniProt P21554); settings: receptor binding studies, GB 2434097; cited from earlier work
Sequence of CB-1 receptor (P21554 whole entry): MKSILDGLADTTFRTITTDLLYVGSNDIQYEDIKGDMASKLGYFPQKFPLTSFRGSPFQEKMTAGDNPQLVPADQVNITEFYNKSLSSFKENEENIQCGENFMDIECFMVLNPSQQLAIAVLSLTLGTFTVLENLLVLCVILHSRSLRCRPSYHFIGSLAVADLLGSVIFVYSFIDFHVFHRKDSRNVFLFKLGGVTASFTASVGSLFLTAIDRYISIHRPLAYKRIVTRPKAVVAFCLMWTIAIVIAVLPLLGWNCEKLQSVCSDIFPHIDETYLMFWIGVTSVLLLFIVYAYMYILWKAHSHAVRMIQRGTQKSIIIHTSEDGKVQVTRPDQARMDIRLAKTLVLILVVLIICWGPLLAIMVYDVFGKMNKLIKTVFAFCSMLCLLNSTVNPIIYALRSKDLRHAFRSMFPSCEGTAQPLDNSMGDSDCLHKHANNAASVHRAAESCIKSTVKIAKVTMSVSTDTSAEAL

Structure (SMILES)	food intake [1]	retention of insulin in the pancreatic islet (insulin staining, histology) (pancreatic islet cells; 28 day study, FIGS. 2-5, 10 mg/kg)	pancreatic islet beta cell mass (morphological analysis) (pancreatic islet cells; end of study, FIG. 8)	blood glucose concentration during a 24 hour period ([2]; male db/db mice, 10 mg/kg daily, FIG. 7)	reduction in blood glucose ([2]; male db/db mice, 10 mg/kg daily, conclusion of Example 1)	fasting insulin ([2]; rodent model of diabetes)	concentration of insulin during oral glucose tolerance test, mean change from baseline ([3]; FIG. 14)	concentration of blood glucose during oral glucose tolerance test, mean change from baseline ([3]; FIG. 15)	HOMA2 insulin sensitivity, mean change from baseline [4]	HOMA2 beta cell function, mean change from baseline (beta cell function)	change from baseline in mean serum GLP-1 levels [5]	CB-1 receptor pharmacology (CB-1 receptor)	weight gain (bodyweight change over the study period) ([1]; FIG. 6)
Cc1c(C(=O)NN2CCCCC2)nn(-c2ccc(Cl)cc2Cl)c1-c1ccc(I)cc1 [AM 251]	slightly lower												
CCCc1cc(O)c2c(c1)OC(C)(C)[C@@H]1CCC(C)=C[C@@H]21 [THCV, Tetrahydrocannabivarin]	slightly lower	greater retention of insulin in the pancreatic islet than both AM251 and CBD; also recorded: statistically more insulin present in the pancreatic islets	higher in the THCV treated animals than in the vehicle and CBD and AM251 treated groups	more controlled during a 24 hour period	without having a profound reduction in blood glucose	reduction in fasting insulin	increases over the first hour and then reduces down to the same level as the placebo after 2 hours	quickly reducing the blood glucose level compared to placebo	increased sensitivity to insulin	much increased beta cell function compared to all the other groups	highest increase in GLP-1	neutral antagonist	
C=C(C)[C@@H]1CCC(C)=C[C@H]1c1c(O)cc(CCCCC)cc1O [CBD, cannabidiol]													increased weight gain
